Measurements: ChEMBL document CHEMBL3217524, “The anti-tumor antibiotic PD 113,271 binds to microtubule-associated protein 1B (MAP1B)” (Medchemcomm, 2011)
Converted amounts (≈) assume the structure as drawn. The source made the active and inactive calls. The rule behind the calls is not given here.

Experiments:
[1] = target: T1, Microtubule-associated protein 1B (Homo sapiens, UniProt P46821); experiment: Binding affinity to human MAP1B (582 to 705) expressed in T7 phage after 1 hr by ELISA
[2] = target: Ribosomal L1 domain-containing protein 1 (Homo sapiens) (UniProt O76021); experiment: Binding affinity to human ribosomal L1 domain containing protein (309 to 432) expressed in T7 phage after 1 hr by ELISA
[3] = target: T1, Microtubule-associated protein 1B; experiment: Binding affinity to human recombinant MAP1B-HBR (589 to 790) expressed in Escherichia coli BL21(DE3) by surface plasmon resonance analysis
[4] = target: Microtubule-associated protein 1B (Rattus norvegicus) (UniProt P15205); experiment: Binding affinity to MAP1B in rat PC12 cells after 2 hrs by Western blotting analysis; type: cell-based; conditions: PC-12
[5] = target: T1, Microtubule-associated protein 1B; experiment: Binding affinity to MAP1B in human MCF7 cells assessed as protein complex at 1 uM after 24 hrs by DAPI staining-based immunofluorescence microscopy relative to control; type: cell-based
L1210 = experiment: Cytotoxicity against mouse L1210 cells; type: functional, cell-based
[6] = target: T1, Microtubule-associated protein 1B; experiment: Binding affinity to MAP1B in human MCF7 cells assessed as protein localization around perinuclear region at 1 uM after 24 hrs by DAPI staining-based immunofluorescence microscopy relative to control; type: cell-based
Ehrlich = experiment: Inhibition of topoisomerse-2 in mouse EAC cells; type: cell-based
[7] = target: T1, Microtubule-associated protein 1B; experiment: Binding affinity to human recombinant MAP1B-HBR (589 to 790) expressed in Escherichia coli BL21(DE3) assessed as inhibition of MAP1B-HBR-tubulin interaction at 1 to 20 uM by surface plasmon resonance analysis
[8] = Cytotoxicity against human HCT8 cells; type: functional, cell-based; conditions: HCT-8
[9] = Inhibition of PP2A (unknown origin) by spectrophotometry; design: species or system Homo sapiens

T1 sequence (P46821 2-2206 limits assumed): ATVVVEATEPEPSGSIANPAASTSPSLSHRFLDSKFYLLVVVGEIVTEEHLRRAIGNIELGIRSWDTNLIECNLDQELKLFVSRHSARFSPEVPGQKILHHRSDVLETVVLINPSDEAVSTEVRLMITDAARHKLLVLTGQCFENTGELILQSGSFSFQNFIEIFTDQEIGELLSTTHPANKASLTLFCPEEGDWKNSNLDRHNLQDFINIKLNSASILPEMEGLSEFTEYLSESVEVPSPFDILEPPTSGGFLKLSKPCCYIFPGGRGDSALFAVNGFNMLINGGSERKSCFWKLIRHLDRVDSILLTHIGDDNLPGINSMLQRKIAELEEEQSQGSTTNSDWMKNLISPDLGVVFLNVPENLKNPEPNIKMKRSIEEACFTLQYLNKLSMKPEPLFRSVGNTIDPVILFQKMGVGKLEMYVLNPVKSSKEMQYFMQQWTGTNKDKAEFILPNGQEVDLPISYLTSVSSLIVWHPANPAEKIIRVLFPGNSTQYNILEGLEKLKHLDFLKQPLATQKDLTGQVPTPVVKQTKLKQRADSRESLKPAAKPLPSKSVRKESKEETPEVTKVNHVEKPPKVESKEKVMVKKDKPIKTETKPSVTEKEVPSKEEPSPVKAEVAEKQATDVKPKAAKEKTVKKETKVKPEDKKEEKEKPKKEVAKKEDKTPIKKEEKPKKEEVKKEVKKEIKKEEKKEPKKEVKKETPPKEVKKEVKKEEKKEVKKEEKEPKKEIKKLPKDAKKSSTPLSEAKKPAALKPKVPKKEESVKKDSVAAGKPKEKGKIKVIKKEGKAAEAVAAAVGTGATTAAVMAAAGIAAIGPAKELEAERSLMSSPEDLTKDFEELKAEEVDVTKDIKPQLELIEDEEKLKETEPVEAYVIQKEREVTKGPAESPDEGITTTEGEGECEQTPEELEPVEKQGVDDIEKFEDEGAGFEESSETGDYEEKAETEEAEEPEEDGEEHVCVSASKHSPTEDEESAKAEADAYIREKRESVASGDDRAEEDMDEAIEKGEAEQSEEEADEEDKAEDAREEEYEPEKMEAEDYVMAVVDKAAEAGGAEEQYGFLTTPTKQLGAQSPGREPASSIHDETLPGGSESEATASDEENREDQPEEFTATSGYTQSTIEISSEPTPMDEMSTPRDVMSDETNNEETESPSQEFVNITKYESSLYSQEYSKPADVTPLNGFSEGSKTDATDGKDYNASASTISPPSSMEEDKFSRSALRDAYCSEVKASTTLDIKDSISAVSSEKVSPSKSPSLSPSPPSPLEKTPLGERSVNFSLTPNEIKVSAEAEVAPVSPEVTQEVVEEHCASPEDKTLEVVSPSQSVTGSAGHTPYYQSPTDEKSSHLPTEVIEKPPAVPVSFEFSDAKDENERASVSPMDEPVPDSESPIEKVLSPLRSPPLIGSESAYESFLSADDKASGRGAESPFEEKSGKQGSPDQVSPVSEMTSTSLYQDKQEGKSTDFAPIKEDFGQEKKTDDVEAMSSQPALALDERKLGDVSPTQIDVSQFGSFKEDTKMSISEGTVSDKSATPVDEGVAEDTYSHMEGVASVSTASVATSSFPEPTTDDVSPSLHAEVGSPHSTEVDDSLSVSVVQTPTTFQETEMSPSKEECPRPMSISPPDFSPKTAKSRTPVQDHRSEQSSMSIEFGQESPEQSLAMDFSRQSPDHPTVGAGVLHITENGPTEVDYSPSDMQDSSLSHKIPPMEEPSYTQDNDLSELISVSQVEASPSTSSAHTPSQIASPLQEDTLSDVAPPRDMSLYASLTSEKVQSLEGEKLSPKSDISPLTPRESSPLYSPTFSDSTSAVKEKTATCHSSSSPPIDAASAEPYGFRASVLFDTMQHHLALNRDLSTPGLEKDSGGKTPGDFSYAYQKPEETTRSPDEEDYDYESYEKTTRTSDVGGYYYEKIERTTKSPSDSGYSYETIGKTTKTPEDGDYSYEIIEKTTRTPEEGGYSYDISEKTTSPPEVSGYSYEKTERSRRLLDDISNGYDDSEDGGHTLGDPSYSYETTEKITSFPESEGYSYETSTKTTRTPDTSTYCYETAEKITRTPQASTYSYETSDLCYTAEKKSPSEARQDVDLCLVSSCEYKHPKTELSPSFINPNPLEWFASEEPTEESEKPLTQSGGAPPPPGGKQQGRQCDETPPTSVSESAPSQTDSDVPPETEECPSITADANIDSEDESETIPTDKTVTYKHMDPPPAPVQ
T1 sequence (P46821 2207-2468 limits assumed): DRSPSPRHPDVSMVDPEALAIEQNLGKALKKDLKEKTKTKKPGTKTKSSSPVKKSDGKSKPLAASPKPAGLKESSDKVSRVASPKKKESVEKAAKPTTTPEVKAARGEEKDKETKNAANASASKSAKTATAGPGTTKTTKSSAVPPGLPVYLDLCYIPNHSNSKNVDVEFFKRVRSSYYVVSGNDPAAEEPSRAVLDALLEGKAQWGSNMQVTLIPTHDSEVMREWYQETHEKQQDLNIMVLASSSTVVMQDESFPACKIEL
Chain of Microtubule-associated protein 1B (Rattus norvegicus) (P15205 whole entry): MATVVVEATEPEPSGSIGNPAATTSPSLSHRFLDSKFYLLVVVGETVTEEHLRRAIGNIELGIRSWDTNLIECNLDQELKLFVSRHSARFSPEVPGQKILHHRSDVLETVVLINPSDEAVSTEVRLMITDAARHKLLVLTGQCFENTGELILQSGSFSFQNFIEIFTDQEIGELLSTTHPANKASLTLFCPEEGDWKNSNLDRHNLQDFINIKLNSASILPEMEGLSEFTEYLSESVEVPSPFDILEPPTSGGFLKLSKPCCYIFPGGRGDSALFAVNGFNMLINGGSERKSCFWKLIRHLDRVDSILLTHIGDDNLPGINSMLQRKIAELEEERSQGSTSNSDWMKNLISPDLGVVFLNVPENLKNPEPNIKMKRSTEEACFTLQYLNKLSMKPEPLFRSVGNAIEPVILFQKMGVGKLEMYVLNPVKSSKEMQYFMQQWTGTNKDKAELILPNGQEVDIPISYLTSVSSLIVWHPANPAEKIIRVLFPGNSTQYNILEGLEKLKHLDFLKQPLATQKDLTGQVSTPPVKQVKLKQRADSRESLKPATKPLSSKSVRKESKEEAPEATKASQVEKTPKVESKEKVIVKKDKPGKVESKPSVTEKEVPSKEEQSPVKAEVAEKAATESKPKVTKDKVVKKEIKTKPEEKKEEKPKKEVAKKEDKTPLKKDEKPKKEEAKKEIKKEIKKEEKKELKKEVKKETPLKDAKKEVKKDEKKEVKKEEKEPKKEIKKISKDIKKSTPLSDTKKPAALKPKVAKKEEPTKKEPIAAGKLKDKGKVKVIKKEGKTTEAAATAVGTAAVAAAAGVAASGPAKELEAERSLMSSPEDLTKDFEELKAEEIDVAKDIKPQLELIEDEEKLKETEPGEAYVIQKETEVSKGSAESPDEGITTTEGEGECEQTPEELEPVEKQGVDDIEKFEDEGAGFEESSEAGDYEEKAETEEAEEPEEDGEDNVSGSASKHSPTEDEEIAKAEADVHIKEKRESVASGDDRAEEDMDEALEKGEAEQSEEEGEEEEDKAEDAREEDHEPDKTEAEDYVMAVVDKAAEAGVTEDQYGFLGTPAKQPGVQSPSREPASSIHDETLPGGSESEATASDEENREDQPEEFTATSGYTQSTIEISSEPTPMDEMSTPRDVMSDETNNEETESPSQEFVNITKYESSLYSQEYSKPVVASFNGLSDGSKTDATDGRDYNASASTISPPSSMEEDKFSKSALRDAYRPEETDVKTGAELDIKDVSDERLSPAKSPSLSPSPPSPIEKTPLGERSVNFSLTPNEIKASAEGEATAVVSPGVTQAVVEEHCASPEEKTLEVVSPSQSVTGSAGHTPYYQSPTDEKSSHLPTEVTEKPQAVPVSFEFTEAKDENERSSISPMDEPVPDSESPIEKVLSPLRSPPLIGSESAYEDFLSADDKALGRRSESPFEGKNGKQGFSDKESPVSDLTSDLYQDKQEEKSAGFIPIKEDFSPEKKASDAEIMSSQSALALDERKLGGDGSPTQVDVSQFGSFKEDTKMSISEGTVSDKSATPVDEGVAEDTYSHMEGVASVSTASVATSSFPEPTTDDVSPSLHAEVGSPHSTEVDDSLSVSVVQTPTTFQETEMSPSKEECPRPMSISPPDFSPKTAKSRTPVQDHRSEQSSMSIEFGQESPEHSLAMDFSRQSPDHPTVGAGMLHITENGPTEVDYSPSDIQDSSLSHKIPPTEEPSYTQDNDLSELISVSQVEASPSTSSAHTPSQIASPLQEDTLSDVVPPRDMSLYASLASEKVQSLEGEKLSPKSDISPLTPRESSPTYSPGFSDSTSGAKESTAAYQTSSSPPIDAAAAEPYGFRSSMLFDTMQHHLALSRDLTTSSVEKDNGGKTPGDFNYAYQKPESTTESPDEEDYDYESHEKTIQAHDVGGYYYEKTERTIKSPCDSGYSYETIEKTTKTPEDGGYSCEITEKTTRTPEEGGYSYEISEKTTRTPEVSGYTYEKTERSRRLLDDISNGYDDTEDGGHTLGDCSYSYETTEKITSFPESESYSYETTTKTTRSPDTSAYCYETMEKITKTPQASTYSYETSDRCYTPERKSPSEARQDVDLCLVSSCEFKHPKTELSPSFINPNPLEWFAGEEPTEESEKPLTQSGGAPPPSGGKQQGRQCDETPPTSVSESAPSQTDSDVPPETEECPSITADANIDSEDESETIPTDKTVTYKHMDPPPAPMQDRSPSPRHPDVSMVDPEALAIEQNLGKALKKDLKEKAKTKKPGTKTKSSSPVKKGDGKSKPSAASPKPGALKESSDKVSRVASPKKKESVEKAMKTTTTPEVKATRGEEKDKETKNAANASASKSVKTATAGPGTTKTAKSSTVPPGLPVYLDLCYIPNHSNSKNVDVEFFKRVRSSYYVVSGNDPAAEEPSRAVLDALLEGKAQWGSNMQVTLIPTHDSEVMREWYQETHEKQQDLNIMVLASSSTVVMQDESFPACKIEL

O=C(CCCC[C@@H]1SC[C@@H]2NC(=O)N[C@@H]21)NCCOCCn1cc(COCCOCCOc2ccc(COP(=O)(O)O)cc2)nn1
Activity [1]: inactive | Activity [2]: Active

C[C@@](O)(/C=C/[C@@H]1OC(=O)C=C[C@@H]1OCc1ccc(OCCOCCOCc2cn(CCOCCNC(=O)CCCC[C@@H]3SC[C@@H]4NC(=O)N[C@@H]43)nn2)cc1)[C@@H](C[C@@H](O)\C=C/C=C\C=C\CO)OP(=O)(O)O
Kd [3]: 210 nM | Activity [1]: Active | Activity [2]: Active

C[C@@](O)(/C=C/[C@@H]1OC(=O)C=C[C@@H]1O)[C@@H](C[C@@H](O)\C=C/C=C\C=C\CO)OP(=O)(O)O
Activity [4]: Active | Activity [5]: Active | IC50 (L1210): 1800 nM | Activity [6]: Active | MIC (Ehrlich): 12.5 µM (≈ 5.58 µg/mL) | Activity [7]: Active | IC50 [8]: 9000 nM

C[C@@](O)(/C=C/[C@H]1CC=CC(=O)O1)[C@@H](C[C@@H](O)\C=C/C=C\C=C\CO)OP(=O)(O)O [FOSTRIECIN]
MIC (Ehrlich): 50 µM (≈ 21.5 µg/mL) | IC50 [8]: 5100 nM | IC50 [9]: 1.5 nM
